Measurements taken from US20110144345A1, “SULFOXYIMINO-SUBSTITUTED BENZOYL DERIVATIVE AND HERBICIDE” (NIPPON SODA CO., LTD., priority 2008, published 2011).

Tests used:
[1] = tested on: Echinochloa crus-galli; assay: Paddy pot test, herbicidal effect on Echinochloa crus-galli; type: in vivo; parameters: scale not given here; conditions: Screening, 63 g/ha, applied at 1.5-leaf stage, examined after 3 weeks
Method: (§1) Plastic pots having an area of 100 cm^2 and a depth of 10 cm were filled with paddy soil which is puddled by adding water, and seeds of Echinochloa crus-galli and Scirpus juncoides were planted in the pots. After seeding, rice plants at the 2.5-leaf stage were transplanted and the pots were filled with water. The rice plants were grown in a greenhouse. […] The herbicidal effects and harmful effects on the rice plants were examined after 3 weeks. Herbicidal effects were examined according to the examination criteria described below and were represented by the herbicidal index. [table] […] [formula]

[2] = tested on: Scirpus juncoides; assay: Paddy pot test, herbicidal effect on Scirpus juncoides; type: in vivo; parameters: scale not given here; conditions: Screening, 63 g/ha, examined after 3 weeks
Method: as §1

[3] = tested on: rice plants; assay: Paddy pot test, harmful effects on transplanted rice plants; type: in vivo; parameters: scale not given here; conditions: Screening, 63 g/ha, applied at Echinochloa crus-galli 1.5-leaf stage, examined after 3 weeks
Method: as §1

Row | Rice (harmful effects on the rice plants, index) [3] | melting point [°C] | Structure (SMILES) | Echinochloa crus-galli (herbicidal index) [1] | Scripus juncoides (herbicidal index) [2]
1 | 0 | 72 to 74 | COc1ccc(C(=O)c2cnn(C)c2O)c(OC)c1N=S1(=O)CCOCC1 [Example 133] | 6 | 7
2 | 0 | 107 to 109 | COc1ccc(C(=O)c2cnn(C)c2O)c(F)c1N=S1(=O)CCCCC1 [Example 112] | 8 | 8
3 | 0 | 121 to 123 | COc1c(N=S2(=O)CCCCC2)cccc1C(=O)c1cnn(C)c1O [Example 131] | 6 | 8
4 | 0 | – | COc1ccc(C(=O)c2cnn(C)c2OCc2ccc3ccccc3c2)c(Cl)c1N=S(C)(=O)c1ccccc1 (stereo not drawn) [Example 122] | 10 | 6
5 | 0 | – | Cn1ncc(C(=O)c2ccc(OC(F)F)c(N=S3(=O)CCCCC3)c2Cl)c1OCc1ccc2ccccc2c1 [Example 182] | 10 | 7
6 | 0 | – | COc1c(N=S2(=O)CCCCC2)cccc1C(=O)c1cnn(C)c1OCc1ccc2ccccc2c1 [Example 132] | 6 | 8
7 | 0 | – | Cc1ccc(C(=O)C2=C(O)CCCC2=O)c(C)c1N=S1(=O)CCCCC1 [Example 110] | 10 | 8
8 | 0 | – | CCS(=O)(CC)=Nc1c(C(=O)OC)ccc(C(=O)C2=C(O)CCCC2=O)c1Cl [Example 148] | 6 | 8
9 | 0 | – | COc1ccc(C(=O)c2c(C)nn(C)c2OCc2ccc3ccccc3c2)c(Cl)c1N=S1(=O)CCCCC1 [Example 253] | 6 | 8
10 | 0 | – | COc1ccc(C(=O)c2cnn(C)c2OS(=O)(=O)c2ccc(C)cc2)c(Cl)c1N=S1(=O)CCCCC1 [Example 106] | 10 | 8
11 | 0 | – | COc1ccc(C(=O)c2cn(C(=O)SC)n(C)c2=O)c(Cl)c1N=S1(=O)CCCCC1 [Example 155] | 8 | 8
12 | 0 | – | CC(C)c1ccc(C(=O)C2=C(O)CCCC2=O)c(Cl)c1N=S1(=O)CCCCC1 [Example 209] | 7 | 6
13 | 0 | – | CCS(=O)(CC)=Nc1c(C)ccc(C(=O)C2=C(O)CCCC2=O)c1C [Example 158] | 5 | 5
14 | 0 | – | Cn1ncc(C(=O)c2ccc(CO)c(N=S3(=O)CCCCC3)c2Cl)c1O [Example 117] | 5 | 8
15 | 0 | – | COc1ccc(C(=O)c2cnn(C)c2O)c(Cl)c1N=S(C)(=O)Cc1ccccc1 (stereo not drawn) [Example 119] | 10 | 8
16 | 0 | – | C=Cc1ccc(C(=O)c2cnn(C)c2O)c(Cl)c1N=S1(=O)CCCCC1 [Example 108] | 10 | 8

Row | Rice (harmful effects on the rice plants, index) [3] | melting point [°C] | Structure (SMILES) | Echinochloa crus-galli (herbicidal index) [1] | Scripus juncoides (herbicidal index) [2]
17 | 0 | – | C=C(C)c1ccc(C(=O)c2cnn(C)c2OC(=O)SC)c(Cl)c1N=S1(=O)CCCCC1 [Example 207] | 6 | 7
18 | 0 | – | CCCS(=O)(CCC)=Nc1c(OC)ccc(C(=O)c2cnn(C)c2OCc2ccc3ccccc3c2)c1Cl [Example 146] | 5 | 6
19 | 0 | – | COc1ccc(C(=O)c2cnn(C)c2OCc2ccc3ccccc3c2)c(F)c1N=S1(=O)CCCCC1 [Example 113] | 7 | 6
20 | 0 | – | CSC(=O)Oc1c(C(=O)c2cccc(N=S3(=O)CCCCC3)c2Br)cnn1C [Example 197] | 7 | 7
21 | 0 | – | COC(=O)c1ccc(C(=O)c2cn(C(=O)SC)n(C)c2=O)c(Cl)c1N=S1(=O)CCCCC1 [Example 153] | 7 | 8
22 | 0 | – | COc1ccc(C(=O)c2cnn(C)c2OCc2ccc3ccccc3c2)c(Cl)c1N=S(C)(=O)Cc1ccccc1 (stereo not drawn) [Example 121] | 7 | 7
23 | 0 | – | CCS(=O)(CC)=Nc1c(OC)ccc(C(=O)c2cnn(C)c2OCc2ccc3ccccc3c2)c1Cl [Example 248] | 5 | 8
24 | 0 | – | CCCS(=O)(=O)Oc1c(C(=O)c2ccc(OC)c(N=S3(=O)CCCCC3)c2Cl)cnn1C [Example 130] | 10 | 8
25 | 0 | – | C=C(C)c1ccc(C(=O)c2cnn(C)c2O)c(Cl)c1N=S1(=O)CCCCC1 [Example 204] | 5 | 7
26 | 0 | – | COc1ccc(C(=O)c2cnn(C)c2OCC(=O)c2ccc([N+](=O)[O-])cc2)c(Cl)c1N=S1(=O)CCCCC1 [Example 114] | 10 | 8
27 | 0 | – | COC(=O)Oc1c(C(=O)c2ccc(OC)c(N=S3(=O)CCCCC3)c2Cl)cnn1C [Example 104] | 10 | 9
28 | 0 | – | COc1ccc(C(=O)c2cnn(C)c2OCc2ccccc2)c(Cl)c1N=S1(=O)CCCCC1 [Example 107] | 7 | 7
29 | 0 | – | CCOc1ccc(C(=O)c2cnn(C)c2OC(=O)SC)c(OC)c1N=S1(=O)CCCCC1 [Example 177] | 5 | 7
30 | 0 | – | COc1ccc(C(=O)c2cnn(C)c2O)c(Cl)c1N=S(C)(=O)c1ccccc1 (stereo not drawn) [Example 118] | 7 | 8
31 | 0 | – | COC(=O)c1ccc(C(=O)c2cnn(C)c2OC(=O)SC(C)(C)C)c(Cl)c1N=S1(=O)CCCCC1 [Example 203] | 10 | 7
32 | 0 | – | COc1c(C(=O)c2cnn(C)c2OCc2ccc3ccccc3c2)ccc(C)c1N=S1(=O)CCCCC1 [Example 136] | 7 | 8
